The results in this text go back to patent publication US20130302278A1, “USE OF TLR AGONISTS AND/OR TYPE 1 INTERFERONS TO ALLEVIATE TOXICITY OF TNF-R AGONIST THERAPEUTIC REGIMENS” (Immurx Inc., priority 2007, published 2013).

One series deals with memory CD8^+ T cells. The experiment in a line: Memory CD8+ T-cell function (intracellular cytokine staining) 60+ days after vaccination. The note with it: spleen and lung. The format is in vivo, mice. As for the experimental part: In the experiments depicted in FIG. 2, mice were immunized with 100 μg each of V peptide, CD40, and S-27609 in combinations as indicated. Memory CD8S functionality was assessed 65 days later. (A) Representative dot plots of IFN secretion by memory CD8^+ T cells isolated from spleens and lungs of vaccinated mice. Dot plots are gated on live CD8^+ cells, and numbers indicate the percentage of cells positive for both IFN and CD44. (B) Memory CD8^+ T-cell cytolytic activity was assessed by performing an in vivo cytotoxicity assay. Numbers reflect the percentage of antigen-specific lysis. (C,D) Quantification of relative and absolute numbers of memory CD8 cells expressing IFN in the spleen (C) and lung (D). Absolute numbers of positive cells were determined by multiplying the relative percentage of each cell population by the total number of cells isolated from each tissue. (E) Quantification of the in vivo cytotoxicity assay presented in panel B. P.001 by one-tailed ANOVA. […] Cells from panel F were analyzed for the ability to produce TNF and IL-2. […]
Mice were immunized with 100 μg each of V peptide, CD40, and S-27609 in combinations as indicated. Memory CD8 functionality was assessed 65 days later. […] (B) Memory CD8^+ T-cell cytolytic activity was assessed by performing an in vivo cytotoxicity assay. […] (E) Quantification of the in vivo cytotoxicity assay presented in panel B. P.001 by one-tailed ANOVA. […]

The subject of series [1] is TRP2-specific CD8^+ T cells. The experiment in a line: Degranulation (CD107a) and expansion of CD8+ T cells in peripheral blood 7 days after immunization. The class given is in vivo, C57BL/6 mice. The note with it: 7 days after i.v. immunization, 100 μg each, groups given with V peptide. The source says:
Seven days later, mice were bled and cells were restimulated in vitro with TRP2(180-188) to assess the ability to produce IFN and translocate CD107a as described in “Methods.” Lymphocytes were identified by forward and side scatter and subsequently gated on all CD8^+ events. (A) Representative dot plots from vaccinated mice. The numbers in the upper right corners indicate the frequency of CD8^+ T cells that are positive for IFN and CD44 (top row) or IFN and CD107a (bottom row). (B) Percentage of peripheral blood lymphocytes expressing the CD8 antigen. P.001 by one-tailed ANOVA (C) Quantification of the percentages of CD8^+ cells that degranulated in response to peptide restimulation. In all cases, data presented are representative of at least 3 independent experiments. […] P.001 by one-tailed ANOVA.
Cells from lung, spleen, or peripheral blood (peripheral blood lymphocytes [PBLs]) were incubated with 1 μg/mL Ova(257-264) or TRP2(180-188) peptide plus 10 U/mL IL-2 and 3 μg/mL brefeldin A in complete medium at 37° C. for 5 to 18 hours. […] The percentage of IFN^+ cells was calculated by subtracting the background observed with the irrelevant peptide control.

Series [2] can be described thus: Serum transaminase (ALT, AST) analysis of hepatocellular injury. The class given is in vivo, mice. The note with it: 100 μg each i.v., 24 to 72 hours. The protocol: (§1) FIG. 5 This figure contains experiments that reveal that the hepatic toxicity associated with CD40 monotherapy is reversed with TLR7 agonism. FIG. 5(A, B) contain kinetic analysis of serum transaminases. Mice were treated with PBS, 100 μg CD40, 100 μg TLR7*, or both intravenously. Serum was isolated at various time points afterward, and serum levels of alanine transaminase (A) or aspartate transaminase (B) were measured as described. Data are representative of 3 independent experiments, with n=3 to 8 mice per group, per time point. (C-F) Histologic analysis of livers treated with PBS (C), […] CD40 (D), 100 μg TLR7* (E), or 100 μg CD40 and 100 μg TLR7*(F) for 48 hours. (G) Semiquantitative assessment of histopathologic changes in livers from mice treated as above for 48 hours. […]
(§2) Hepatocellular injury was biochemically assessed by measuring serum liver enzyme activity. […] Serum was harvested 24 to 72 hours later and levels of alanine aminotransferase (ALT) and aspartate aminotransferase (AST) were determined by standard clinical assays at the National Jewish Medical Center Core Lab (Denver, Colo.). For histologic analysis, livers from mice treated as above were fixed in buffered formalin, embedded in paraffin, sectioned, and stained with hematoxylin and eosin (H&E) prior to being coded and scored on a 0 to 4 scale in a blinded fashion. […]

A short description of series [3]: Macroscopic and histologic analysis of livers (H&E, 0 to 4 score). The format is in vivo, mice. As for the experimental part: as §1, §2
The next series relates to B16.F10 melanoma cells. The experiment in a line: Therapeutic vaccination against metastatic B16.F10 melanoma (lung metastases, survival).

Method for B16.F10 melanoma cells: Therein, C57BL/6 mice were challenged with 10^5 metastatic B16.F10 melanoma cells intravenously. Four days later, mice were vaccinated with 100 μg of the tumor-associated antigen V, 100 μg CD40 FGK45, and 100 μg S-27609 in combinations as indicated. After 24 days, mice were killed, lungs were removed, and metastatic surface tumor nodules were enumerated with the aid of a dissecting microscope.
Mice were injected with 10^5 B16.F10 melanoma tumor cells intravenously to establish lung metastases. Four days later, naive or tumor-bearing mice were intravenously vaccinated with 100 μg V peptide, 100 μg anti-CD40, and 100 μg of the TLR7 agonist S-27609 in various combinations as indicated. Lungs were harvested approximately 20 days later, and metastases were enumerated with the aid of a dissection microscope. Alternatively, mice were monitored for survival over the next 90 days.
C57BL/6 mice were challenged with 10^5 metastatic B16.F10 melanoma cells intravenously. Four days later, mice were vaccinated with 100 μg of the tumor-associated antigen V, 100 μg CD40 FGK45, and 100 μg S-27609 in combinations as indicated. After 24 days, mice were killed, lungs were removed, and metastatic surface tumor nodules were enumerated with the aid of a dissecting microscope.

As for `Cc1nc2c(N)nc3ccccc3c2n1CC(C)(C)O` [TLR7*], in the series on memory CD8^+ T cells, the “persisting antigen-specific CD8^+ effector population” value is given as “failed to induce a significant pool”. The “CD8^+ cells expressing CD107a (degranulation after peptide restimulation)” value in series [1] was “approximately 2%”. Besides, the “plasma levels of ALT and AST” value in series [2] is “no effect on enzyme levels”. Further, the “histologic analysis of liver” value in series [3] (48 hours after 100 μg each i.v.) is “minor inflammation without any observable coagulative necrosis”. Moreover, the “semiquantitative score of histologic liver damage” value in series [3] (48 hours, P=0.026, TLR7* added to CD40) was “significantly reduces liver toxicity associated with CD40 monotherapy”.

As for SIYDFFVWL [tumor antigen], the “control of tumor progression (number of lung tumor nodules)” value in the series on B16.F10 melanoma cells (10^5 B16.F10 i.v., treatment 4 days later, lungs at 24 days) is given as “ineffective in controlling tumor progression”. Besides, in the series with B16.F10 melanoma cells (all mice succumbed to lung failure), the mean survival time stood at 29 days.
